Experimental data from patent US9029401B2 (The Regents of the University of California, priority 2011, dated 2015).
Where two headings read alike, the source gives them in different places.

Tests used:
[1] = test system: T47D breast cancer cell line; assay: MTT cell viability assay, T47D; format: cell-based; conditions: Homo sapiens, 72 hours incubation
Experimental: (§1) Cell-based assays were performed using the described cell lines, grown in the appropriate Growth Mediums containing 10% fetal bovine serum and 1% penicillin-streptomycin. Cancer cells were plated at 15,000 cells/well in 96-well plates and allowed to attach overnight. Inhibitors were dissolved in DMSO and then diluted to concentrations ranging from 0.1-25 μM with a final DMSO concentration of 0.1%. Cell viability was determined after 72 hours incubation periods. To determine anti-proliferative effects of inhibitors, cellular proliferation was determined using the colorimetric MTT cell viability assay kit, as described by the manufacture (ATCC).

HepG2 hepatoma cell line = assay: MTT cell viability assay, HepG2; format: cell-based; conditions: for EC50: Homo sapiens, read-out: EC50 on cell viability, HepG2 (Liver)
Experimental: as §1, with “Inhibitors were dissolved in DMSO and then diluted to concentrations ranging from 0.1-25 μM with a final DMSO concentration of 0.1%.” left out

Huh-7 hepatoma cell line = assay: MTT cell viability assay, Huh-7; format: cell-based; conditions: Homo sapiens, read-out: EC50 on cell viability, Huh-7 (Liver)
Experimental: as §1, with “Inhibitors were dissolved in DMSO and then diluted to concentrations ranging from 0.1-25 μM with a final DMSO concentration of 0.1%.” left out

Raf-1 = Raf-1 (Homo sapiens (Human), UniProt P04049); assay: In vitro kinase inhibition assay (ADP-Glo), Raf-1; format: biochemical
Sequence of Raf-1 (P04049 whole entry): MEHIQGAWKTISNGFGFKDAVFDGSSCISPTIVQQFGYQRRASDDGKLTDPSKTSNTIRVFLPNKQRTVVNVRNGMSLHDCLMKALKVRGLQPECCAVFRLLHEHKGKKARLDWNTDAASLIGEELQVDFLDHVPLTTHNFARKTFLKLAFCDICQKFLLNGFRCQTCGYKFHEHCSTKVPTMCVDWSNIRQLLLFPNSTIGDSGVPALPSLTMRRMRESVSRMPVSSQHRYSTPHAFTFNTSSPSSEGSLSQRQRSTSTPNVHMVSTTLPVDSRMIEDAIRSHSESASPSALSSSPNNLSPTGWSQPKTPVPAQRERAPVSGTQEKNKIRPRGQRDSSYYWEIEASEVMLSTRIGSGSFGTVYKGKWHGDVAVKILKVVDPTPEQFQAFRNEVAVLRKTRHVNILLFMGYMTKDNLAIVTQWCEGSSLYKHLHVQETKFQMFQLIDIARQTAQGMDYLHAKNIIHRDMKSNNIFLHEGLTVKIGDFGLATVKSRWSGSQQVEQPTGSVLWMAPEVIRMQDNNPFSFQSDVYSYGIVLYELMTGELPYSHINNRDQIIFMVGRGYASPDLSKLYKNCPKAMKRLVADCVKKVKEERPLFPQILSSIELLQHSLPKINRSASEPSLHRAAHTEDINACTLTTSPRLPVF
Experimental: (§2) All measurements included background and control (vehicle only) luminescence readings.
(§3) The kinases Raf-1 and b-Raf (V600E), and their corresponding substrate, MEK1, and Full length recombinant CRAF kinase and its respective substrate, recombinant MEK1, were purchased from US Biological (Swampscott, Mass.). All assays were performed under identical conditions for the Raf isozymes: 10 nM Enzyme, 1 μM MEK1, 10 μM ATP, at 22° C. for 2 hours. […] IC50 values were obtained by determining the change in the ADP production (luminescence signal) at various inhibitor concentrations as compared to the control assay. Individual data sets were performed in duplicate and each IC50 was determined by the average and standard deviation of three separate experiments.
as §3, with “Full” for “The kinases Raf-1 and b-Raf (V600E), and their corresponding substrate, MEK1, and Full”, “at” for “under identical conditions for the Raf isozymes:”, “CRAF,” for “Enzyme,”, “(luminescent” for “(luminescence”, “mean” for “average”

human sEH = human sEH (Homo sapiens (Human), UniProt P34913); assay: Inhibitory activity against human sEH; format: biochemical; conditions: read-out: Human sEH IC50
Sequence of human sEH (P34913 whole entry): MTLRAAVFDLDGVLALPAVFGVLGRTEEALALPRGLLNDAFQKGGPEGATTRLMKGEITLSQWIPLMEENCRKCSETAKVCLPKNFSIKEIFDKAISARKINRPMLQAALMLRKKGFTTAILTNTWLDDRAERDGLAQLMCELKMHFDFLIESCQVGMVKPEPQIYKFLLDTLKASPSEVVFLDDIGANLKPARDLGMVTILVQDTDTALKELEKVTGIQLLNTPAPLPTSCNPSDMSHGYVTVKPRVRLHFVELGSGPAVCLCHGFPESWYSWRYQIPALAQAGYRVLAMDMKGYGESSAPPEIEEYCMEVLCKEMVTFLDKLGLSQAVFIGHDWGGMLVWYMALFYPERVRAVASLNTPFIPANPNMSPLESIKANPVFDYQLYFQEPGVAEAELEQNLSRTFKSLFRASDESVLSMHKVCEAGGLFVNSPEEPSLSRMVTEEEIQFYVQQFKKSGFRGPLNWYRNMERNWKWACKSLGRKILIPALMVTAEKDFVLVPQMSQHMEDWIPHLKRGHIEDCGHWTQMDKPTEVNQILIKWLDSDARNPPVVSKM

[2] = test system: ACHN renal cell carcinoma cell line; assay: MTT cell viability assay, ACHN; format: cell-based; conditions: Homo sapiens, read-out: EC50 on cell viability, ACHN (Kidney)
Experimental: as §1, with “Inhibitors were dissolved in DMSO and then diluted to concentrations ranging from 0.1-25 μM with a final DMSO concentration of 0.1%.” left out

[3] = test system: SKBR3 breast cancer cell line; assay: MTT cell viability assay, SKBR3; format: cell-based; conditions: Homo sapiens, read-out: EC50 on cell viability, SKBR3 (Breast)
Experimental: as §1

[4] = test system: PC-3 prostate cancer cell line; assay: MTT cell viability assay, PC-3; format: cell-based; conditions: read-out: EC50 on cell viability, PC-3 (Prostate)
Experimental: as §1

b-Raf (V600E) = b-Raf (V600E) (Homo sapiens (Human), UniProt P15056, V600E); assay: In vitro kinase inhibition assay (ADP-Glo), b-Raf (V600E); format: biochemical
Sequence of b-Raf (V600E) (P15056 whole entry V600E): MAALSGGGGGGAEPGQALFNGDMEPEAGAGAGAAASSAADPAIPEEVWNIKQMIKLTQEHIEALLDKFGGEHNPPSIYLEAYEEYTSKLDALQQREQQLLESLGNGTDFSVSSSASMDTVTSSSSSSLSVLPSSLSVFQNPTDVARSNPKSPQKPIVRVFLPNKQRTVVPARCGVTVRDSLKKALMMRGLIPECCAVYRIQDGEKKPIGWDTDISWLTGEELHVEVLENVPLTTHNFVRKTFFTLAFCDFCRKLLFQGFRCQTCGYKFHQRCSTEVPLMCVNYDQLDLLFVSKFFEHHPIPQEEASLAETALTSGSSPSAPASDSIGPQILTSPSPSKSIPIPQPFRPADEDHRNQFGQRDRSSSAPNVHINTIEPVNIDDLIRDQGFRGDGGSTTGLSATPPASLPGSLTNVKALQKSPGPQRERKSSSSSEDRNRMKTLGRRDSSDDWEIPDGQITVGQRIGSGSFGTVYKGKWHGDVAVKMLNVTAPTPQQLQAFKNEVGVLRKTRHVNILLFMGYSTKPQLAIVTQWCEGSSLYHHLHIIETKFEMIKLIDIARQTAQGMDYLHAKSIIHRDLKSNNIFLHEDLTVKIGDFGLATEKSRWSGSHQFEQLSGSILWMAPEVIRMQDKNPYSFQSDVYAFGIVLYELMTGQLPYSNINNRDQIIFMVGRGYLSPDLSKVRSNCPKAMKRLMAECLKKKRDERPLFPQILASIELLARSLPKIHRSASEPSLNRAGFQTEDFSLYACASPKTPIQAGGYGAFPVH
Experimental: as §2, §3

[5] = Pharmacokinetics after cassette oral administration to mice; conditions: male, Swiss Webster, mouse, in vivo, 1 mg/kg
Experimental: Male Swiss Webster mice (10-week old, 30-35 g) were used for PK studies. […] Each blood sample was immediately transferred to a tube containing 50 μL of water containing 0.1% EDTA. After being mixed strongly on a Vortex for 1 min, all samples were stored at −80° C. until analysis. The extraction of sEHIs from blood was performed by a slight modification of a previous method. […] Torrance, Calif.) held at 50° C. […] The injection volume was 10 μL and the samples were kept at 4° C. in the auto sampler. Analytes were detected by negative mode electrospray ionizations tandem quadrupole trap mass spectrometry in multiple reaction-monitoring mode (MRM) on a Trap 4000 Mass Spectrometer (ABI, Milford, Mass.). The parameters of MS condition were the same as presented previously.

[6] = HepG2, MTT, 72 hours incubation
[7] = Huh-7, MTT, 72 hours incubation
[8] = SK-BR-3, MTT, 72 hours incubation

Structure (SMILES)	EC50 [1] [µM]	EC50 (HepG2 hepatoma cell line; [6]) [µM]	EC50 (Huh-7 hepatoma cell line; [7]) [µM]	IC50 (human sEH) [µM]	EC50 ([2]; MTT, 72 hours incubation) [µM]	EC50 [3, 8] [µM]	EC50 ([4]; MTT, 72 hours incubation) [µM]	further results
CNC(=O)c1ccc(O[C@H]2CC[C@H](NC(=O)NC34CC5CC(CC(C5)C3)C4)CC2)cc1 [Compound 2225, trans-4-[4-(3-adamantan-1-yl-ureido]-cyclohexyloxy)-N-methyl-benzamide]	4.5	6	7	0.0005	4.5	7.5	2	IC50 (Raf-1; 10 nM enzyme, 1 μM MEK1, 10 μM ATP, 22° C., 2 hours, read-out: Raf-1 IC50): > 10 µM
CNC(=O)c1ccc(O[C@H]2CC[C@H](NC(=O)Nc3ccc(OC(F)(F)F)cc3)CC2)cc1 [Compound 2227, trans-N-Methyl-4-{4-[3-(4-trifluoromethoxy-phenyl)-ureido]-cyclohexyloxy}-benzamide]	> 25							EC50 (HepG2 hepatoma cell line; HepG2, 72 h): 7 µM; EC50 (Huh-7 hepatoma cell line; Huh-7, 72 h): 5.5 µM; IC50 (Raf-1): 0.34 ± 0.04 µM; IC50 (b-Raf (V600E)): > 10 µM; EC50 ([2]; 72 h): 6.5 µM; EC50 ([3]; SK-BR-3, 72 h): > 25 µM; EC50 ([4]; 72 h): 10 µM
CNC(=O)c1cc(O[C@H]2CC[C@H](NC(=O)Nc3ccc(Cl)c(C(F)(F)F)c3)CC2)ccn1 [Compound 2278, trans-4-{4-[3-(4-chloro-3-trifluoromethyl-phenyl)-ureido]-cyclohexyloxy}-pyridine-2-carboxylic acid methylamide]	5	7	8	0.0005	7.5	8	7	Effect on Hep G2 cell viability (dose dependence) (HepG2 hepatoma cell line; FIG. 2): more efficient than sunitinib; Effect on Hep G2 cell viability (comparison of inhibitors) (HepG2 hepatoma cell line; FIG. 3, at a concentration 2-fold smaller): more efficient than sunitinib; Effect on Hep G2 cell viability (dose dependence) (HepG2 hepatoma cell line; FIG. 4): more efficient than sunitinib; AUC(0-t) [5]: 3 µM·h; Cmax [5]: 190 nM; Tmax [5]: 1.7 h
